# Experimental data reported in PubChem BioAssay (NCI).
#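 A five-concentration, 48-hour dose response in 96-well plates underlies each endpoint, interpolated linearly between surrounding concentrations. GI50 = concentration required for 50% inhibition of growth. TGI marks complete inhibition of growth.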
# Experiments:
# Test in all cases: inhibition of tumour cell growth, NCI panel, 48 h
# UACC-257 melanoma = tested on: UACC-257 melanoma
# EKVX NSCLC = tested on: EKVX NSCLC
# RPMI-8226 leukemia = tested on: RPMI-8226 leukemia
# SF-295 CNS = tested on: SF-295 CNS
# RXF 393 renal = tested on: RXF 393 renal
# NCI-H460 lung = tested on: NCI-H460 lung
# SK-MEL-28 melanoma = tested on: SK-MEL-28 melanoma
# KM12 colon = tested on: KM12 colon
# BT-549 breast = tested on: BT-549 breast
# NCI-H23 lung = tested on: NCI-H23 lung
# 786-0 renal = tested on: 786-0 renal
# M14 melanoma = tested on: M14 melanoma
# CAKI-1 renal = tested on: CAKI-1 renal
# OVCAR-4 ovarian = tested on: OVCAR-4 ovarian
# OVCAR-5 ovarian = tested on: OVCAR-5 ovarian
# SF-539 CNS = tested on: SF-539 CNS
# LOX IMVI melanoma = tested on: LOX IMVI melanoma
# SN12C renal = tested on: SN12C renal
# HCT-116 colon = tested on: HCT-116 colon
# NCI-H522 lung = tested on: NCI-H522 lung
# SW-620 colon = tested on: SW-620 colon
# PC-3 prostate = tested on: PC-3 prostate
# UO-31 renal = tested on: UO-31 renal
# HCC-2998 colon = tested on: HCC-2998 colon
# U251 CNS = tested on: U251 CNS
# MDA-MB-435 = tested on: MDA-MB-435
# TK-10 renal = tested on: TK-10 renal
# OVCAR-3 ovarian = tested on: OVCAR-3 ovarian
# HOP-92 NSCLC = tested on: HOP-92 NSCLC
# NCI-H226 lung = tested on: NCI-H226 lung
# ACHN renal = tested on: ACHN renal
# SNB-75 CNS = tested on: SNB-75 CNS
# SR leukemia = tested on: SR leukemia
# CCRF-CEM leukemia = tested on: CCRF-CEM leukemia
# MOLT-4 leukemia = tested on: MOLT-4 leukemia
# HOP-62 NSCLC = tested on: HOP-62 NSCLC
# DU-145 prostate = tested on: DU-145 prostate
# MALME-3M melanoma = tested on: MALME-3M melanoma
# COLO 205 colon = tested on: COLO 205 colon
# MDA-MB-231 breast = tested on: MDA-MB-231 breast
# UACC-62 melanoma = tested on: UACC-62 melanoma
# HCT-15 colon = tested on: HCT-15 colon
# MCF7 breast = tested on: MCF7 breast
# SNB-19 CNS = tested on: SNB-19 CNS
# SK-OV-3 ovarian = tested on: SK-OV-3 ovarian
# SF-268 CNS = tested on: SF-268 CNS
# A498 renal = tested on: A498 renal
# SK-MEL-2 melanoma = tested on: SK-MEL-2 melanoma
# T-47D breast = tested on: T-47D breast
# NCI/ADR-RES ovarian = tested on: NCI/ADR-RES ovarian
# SK-MEL-5 melanoma = tested on: SK-MEL-5 melanoma
# HS 578T breast = tested on: HS 578T breast
# A549 NSCLC = tested on: A549 NSCLC
# IGROV1 ovarian = tested on: IGROV1 ovarian
# HL-60(TB) leukemia = tested on: HL-60(TB) leukemia
# K-562 leukemia = tested on: K-562 leukemia
# OVCAR-8 ovarian = tested on: OVCAR-8 ovarian
# HT29 colon = tested on: HT29 colon
smiles,measurement,setting,value
Cc1ccc(CNc2c3ccccc3nc3cc(NC(=O)CCN4CCCC4)ccc23)cc1,GI50,UACC-257 melanoma,1690 nM
same,TGI,UACC-257 melanoma,3270 nM
same,GI50,EKVX NSCLC,862 nM
same,TGI,EKVX NSCLC,2250 nM
same,GI50,RPMI-8226 leukemia,412 nM
same,TGI,RPMI-8226 leukemia,1940 nM
same,GI50,SF-295 CNS,1040 nM
same,TGI,SF-295 CNS,2350 nM
same,GI50,RXF 393 renal,414 nM
same,TGI,RXF 393 renal,1570 nM
same,GI50,NCI-H460 lung,365 nM
same,TGI,NCI-H460 lung,1250 nM
same,GI50,SK-MEL-28 melanoma,1660 nM
same,TGI,SK-MEL-28 melanoma,3090 nM
same,GI50,KM12 colon,534 nM
same,TGI,KM12 colon,1790 nM
same,GI50,BT-549 breast,1470 nM
same,TGI,BT-549 breast,2880 nM
same,GI50,NCI-H23 lung,518 nM
same,TGI,NCI-H23 lung,1810 nM
same,GI50,786-0 renal,732 nM
same,TGI,786-0 renal,2040 nM
same,GI50,M14 melanoma,1450 nM
same,TGI,M14 melanoma,2840 nM
same,GI50,CAKI-1 renal,1230 nM
same,TGI,CAKI-1 renal,3910 nM
same,GI50,OVCAR-4 ovarian,569 nM
same,TGI,OVCAR-4 ovarian,2020 nM
same,GI50,OVCAR-5 ovarian,793 nM
same,TGI,OVCAR-5 ovarian,2100 nM
same,GI50,SF-539 CNS,618 nM
same,TGI,SF-539 CNS,1900 nM
same,GI50,LOX IMVI melanoma,515 nM
same,TGI,LOX IMVI melanoma,1760 nM
same,GI50,SN12C renal,479 nM
same,TGI,SN12C renal,1740 nM
same,GI50,HCT-116 colon,390 nM
same,TGI,HCT-116 colon,1420 nM
same,GI50,NCI-H522 lung,509 nM
same,TGI,NCI-H522 lung,1950 nM
same,GI50,SW-620 colon,413 nM
same,TGI,SW-620 colon,1580 nM
same,GI50,PC-3 prostate,515 nM
same,TGI,PC-3 prostate,1830 nM
same,GI50,UO-31 renal,1250 nM
same,TGI,UO-31 renal,2540 nM
same,GI50,HCC-2998 colon,573 nM
same,TGI,HCC-2998 colon,2010 nM
same,GI50,U251 CNS,688 nM
same,TGI,U251 CNS,2050 nM
same,GI50,MDA-MB-435,1330 nM
same,TGI,MDA-MB-435,2620 nM
same,GI50,TK-10 renal,1230 nM
same,TGI,TK-10 renal,2850 nM
same,GI50,OVCAR-3 ovarian,768 nM
same,TGI,OVCAR-3 ovarian,2110 nM
same,GI50,HOP-92 NSCLC,516 nM
same,TGI,HOP-92 NSCLC,2130 nM
same,GI50,NCI-H226 lung,1020 nM
same,TGI,NCI-H226 lung,2460 nM
same,GI50,ACHN renal,541 nM
same,TGI,ACHN renal,1740 nM
same,GI50,SNB-75 CNS,1060 nM
same,TGI,SNB-75 CNS,2260 nM
same,GI50,SR leukemia,301 nM
same,TGI,SR leukemia,1820 nM
same,GI50,CCRF-CEM leukemia,392 nM
same,TGI,CCRF-CEM leukemia,2120 nM
same,GI50,MOLT-4 leukemia,316 nM
same,TGI,MOLT-4 leukemia,1320 nM
same,GI50,HOP-62 NSCLC,680 nM
same,TGI,HOP-62 NSCLC,2380 nM
same,GI50,DU-145 prostate,516 nM
same,TGI,DU-145 prostate,1660 nM
same,GI50,MALME-3M melanoma,1510 nM
same,TGI,MALME-3M melanoma,2920 nM
same,GI50,COLO 205 colon,408 nM
same,TGI,COLO 205 colon,1620 nM
same,GI50,MDA-MB-231 breast,602 nM
same,TGI,MDA-MB-231 breast,1980 nM
same,GI50,UACC-62 melanoma,1400 nM
same,TGI,UACC-62 melanoma,2740 nM
same,GI50,HCT-15 colon,1290 nM
same,TGI,HCT-15 colon,2630 nM
same,GI50,MCF7 breast,453 nM
same,TGI,MCF7 breast,1770 nM
same,GI50,SNB-19 CNS,624 nM
same,TGI,SNB-19 CNS,1920 nM
same,GI50,SK-OV-3 ovarian,1100 nM
same,TGI,SK-OV-3 ovarian,2790 nM
same,GI50,SF-268 CNS,819 nM
same,TGI,SF-268 CNS,2310 nM
same,GI50,A498 renal,1130 nM
same,TGI,A498 renal,2380 nM
same,GI50,SK-MEL-2 melanoma,1690 nM
same,TGI,SK-MEL-2 melanoma,3230 nM
same,GI50,T-47D breast,751 nM
same,TGI,T-47D breast,3020 nM
same,GI50,NCI/ADR-RES ovarian,4020 nM
same,TGI,NCI/ADR-RES ovarian,24200 nM
same,GI50,SK-MEL-5 melanoma,1540 nM
same,TGI,SK-MEL-5 melanoma,2890 nM
CN(C)c1nc2oc(-c3ccccc3)c(-c3ccccc3)c2c2nnnn12,TGI,UACC-257 melanoma,> 100000 nM
same,TGI,EKVX NSCLC,> 100000 nM
same,TGI,RPMI-8226 leukemia,> 100000 nM
same,TGI,SF-295 CNS,> 100000 nM
same,TGI,RXF 393 renal,> 100000 nM
same,TGI,SK-MEL-28 melanoma,> 100000 nM
same,TGI,HS 578T breast,> 100000 nM
same,TGI,KM12 colon,> 100000 nM
same,TGI,A549 NSCLC,> 100000 nM
same,TGI,NCI-H23 lung,> 100000 nM
same,TGI,786-0 renal,> 100000 nM
same,TGI,M14 melanoma,> 100000 nM
same,TGI,CAKI-1 renal,> 100000 nM
same,TGI,IGROV1 ovarian,> 100000 nM
same,TGI,OVCAR-4 ovarian,> 100000 nM
same,TGI,OVCAR-5 ovarian,> 100000 nM
same,TGI,SF-539 CNS,> 100000 nM
same,TGI,LOX IMVI melanoma,> 100000 nM
same,TGI,SN12C renal,> 100000 nM
same,TGI,HCT-116 colon,> 100000 nM
same,TGI,NCI-H522 lung,> 100000 nM
same,TGI,HL-60(TB) leukemia,96200 nM
same,TGI,SW-620 colon,> 100000 nM
same,TGI,UO-31 renal,> 100000 nM
same,TGI,HCC-2998 colon,> 100000 nM
same,TGI,U251 CNS,> 100000 nM
same,TGI,MDA-MB-435,> 100000 nM
same,TGI,TK-10 renal,> 100000 nM
same,TGI,HOP-92 NSCLC,> 100000 nM
same,TGI,NCI-H226 lung,> 100000 nM
same,TGI,ACHN renal,> 100000 nM
same,TGI,SNB-75 CNS,> 100000 nM
same,TGI,K-562 leukemia,> 100000 nM
same,TGI,SR leukemia,> 100000 nM
same,TGI,CCRF-CEM leukemia,> 100000 nM
same,TGI,MOLT-4 leukemia,> 100000 nM
same,TGI,DU-145 prostate,> 100000 nM
same,TGI,COLO 205 colon,> 100000 nM
same,TGI,MDA-MB-231 breast,> 100000 nM
same,TGI,UACC-62 melanoma,> 100000 nM
same,TGI,HCT-15 colon,> 100000 nM
same,TGI,MCF7 breast,> 100000 nM
same,TGI,SNB-19 CNS,> 100000 nM
same,TGI,SK-OV-3 ovarian,> 100000 nM
same,TGI,SF-268 CNS,> 100000 nM
same,TGI,A498 renal,> 100000 nM
same,TGI,T-47D breast,> 100000 nM
same,TGI,OVCAR-8 ovarian,> 100000 nM
same,TGI,NCI/ADR-RES ovarian,> 100000 nM
same,TGI,SK-MEL-5 melanoma,> 100000 nM
same,TGI,HT29 colon,> 100000 nM
